According to patent US10434147B2, “Treatment type 2 diabetes mellitus patients” (Sanofi-Aventis Deutschland GmbH, priority 2015, dated 2019):

Tests used:
[1] = test system: obese type 2 diabetes mellitus patients poorly controlled with a basal insulin alone or with one to three oral anti-diabetic drugs; experiment: 12-week insulin glargine titration (run-in); format: in vivo, human; settings: 12 weeks titration, optionally with metformin
[2] = test system: Patients with Type 2 Diabetes Insufficiently Controlled with Insulin Glargine with or without Metformin; experiment: Body weight, 26-week study; format: in vivo, human; settings: once daily or three times daily; in words
Text: FIG. 6—Graphical study design. ^1 Insulin glargine should be injected subcutaneously once daily at dinner or breakfast time (according to patient's/investigators' preference). […] Meal used for insulin glulisine dosing should remain the same throughout the 26-week treatment period. ^4 Injection of insulin glulisine prior to breakfast, lunch and dinner.
Co-primary endpoints at 26 weeks were (1) non-inferiority (95% CI upper bound <0.4%) in HbA1c reduction with LIXI vs GLU-1 and (2) for LIXI vs GLU-3, either non-inferiority in HbA1c reduction (2a) OR superiority (one-sided α≤0.025) in body weight change (2b). FPG, PPG, IG dose, composite outcomes, AEs, and hypoglycemia were assessed.

Substance | fasting glucose plasma concentration after titration of insulin glargine ([1]; initial reduction from 9.16 mmol/L) | HbA1c after titration of insulin glargine ([1]; initial reduction from 8.51%) | Effect of the comparative treatment on body weight [2]
Gly(A21)-Arg(B31)-Arg(B32) human insulin [insulin glargine] | 6.91 mmol/L | 7.87% | 
insulin glulisine: prandial insulin, comparative treatment once daily or three times daily |  |  | significant weight gain
